# Measurements: patent US5232937A, “Derivatives of N-phenylbenzamide with anti-ulcer and anti-allergy” (Rotta Research Laboratorium SpA., priority 1989, dated 1993)
# Where two headings read alike, the source gives them in different places.
# Columns and labels:
# ulcer caused by ethanol = assay: Cytoprotective activity, ulcer caused by ethanol; assay type: in vivo, rat; settings: for ED50: Rattus norvegicus, iv, 1 h, read-out: ED50, cytoprotective activity, ulcer caused by ethanol; for protective activity (in words): ulcer models of Table 2 (ethanol, 25% NaCl, stress)
# Experimental: (§1) The drugs under test were administered intravenously 15 minutes before the irritant. […] It consists of the assignment of arbitrary points according to the number and gravity of the lesions in accordance with the following criterion:
# (§2) 1 if the length of the necrotic area is 2 mm
# (§3) 2 if the length of the necrotic area is between 2 and 4 mm
# (§4) 3 if the length of the necrotic area is 4 mm
# (§5) 5 if the length of the area is 4 mm with a perforated ulcer.
# (§6) A lesion index is then obtained by adding the number of lesions multiplied by their respective points.
# ulcer caused by 25% NaCl = assay: Cytoprotective activity, ulcer caused by 25% NaCl; assay type: in vivo; settings: Rattus norvegicus, iv, 1 h, read-out: ED50, cytoprotective activity, ulcer caused by 25% NaCl
# Experimental: as §1, §2, §3, §4, §5, §6
# ulcer caused by stress = assay: Cytoprotective activity, ulcer caused by stress (containment); assay type: in vivo; settings: Rattus norvegicus, im, 5 h, read-out: ED50, cytoprotective activity, ulcer caused by stress
# Experimental: as §2, §3, §4, §5, §6
# Male rats weighing approximately 150 g which had been starved for 24 hours were imprisoned in individual cylindrical cages and immersed up to the xiphoid process in cool water kept thermostatically at 19° C. The compounds were administrated intramuscularly (I.M.) 15 minutes before the start of the test.
# 5 hours after the start of their containment, the animals were killed, their stomachs were removed and a quantitative evaluation was then carried out as described above.
# [1] = test system: gastric acid secretion induced by pentagastrin; assay: Anti-secretive activity, gastric acid secretion stimulated with pentagastrin (Lai method, modified); assay type: in vivo; settings: Rattus norvegicus, iv, 1 h; I.V.; rats; pentagastrin 30 mcg/kg/h; read-out: ED50, antagonistic activity towards secretion induced by pentagastrin
# Experimental: (§7) The anti-secretive activities were determined in rats with the use of male animals weighing approximately 200 g, anaesthetised with urethane. Gastric secretion was stimulated with pentagastrin, histamine or cabachol.
# (§8) After tracheotomy, cannulae were inserted in the aesophagus and the duodenum. These were perfused with a tepid solution (37° C.) which was passed through the stomach at a constant flow rate of 1 ml/minute by means of a peristaltic pump. After stabilisation for 20 minutes, the stimulant, dissolved in a physiological solution, was perfused for 120 minutes at the dose indicated in Table 1 in a volume of 0.95 ml/hour. After 60 minutes of perfusion (base stimulation) the product under test was administered intravenously (I.V.) in a bolus and the perfusion of the stimulant was continued for a further 60 minutes. The acid secretion was recorded continuously as a function of time.
# (§9) The activity of the product was evaluated as a percentage reduction in the acid secreted after the administration of the product against the base acidity measured in the first 60 minutes of collection which was in the presence of the stimulant alone.
# [2] = test system: gastric acid secretion induced by histamine; assay: Anti-secretive activity, gastric acid secretion stimulated with histamine (Lai method, modified); assay type: in vivo; settings: Rattus norvegicus, iv, 1 h; I.V.; rats; histamine 2.3 mg/kg/h; read-out: ED50, antagonistic activity towards secretion induced by histamine
# Experimental: as §7, §8, §9
# [3] = test system: gastric acid secretion induced by carbachol; assay: Anti-secretive activity, gastric acid secretion stimulated with carbachol (Lai method, modified); assay type: in vivo; settings: Rattus norvegicus, iv, 1 h; I.V.; rats; carbachol 30 mcg/kg/h; read-out: ED50, antagonistic activity towards secretion induced by carbachol
# Experimental: as §7, §8, §9
# [4] = test system: passive cutaneous anaphylaxis reaction; assay: Passive cutaneous anaphylaxis (PCA) in rats, modified Goose and Blair method; assay type: in vivo, rat; settings: for ED50: Rattus norvegicus, iv, 0.5 h, I.V., rats
# Experimental: Male rats weighing approximately 400 g were treated with 10 mg/kg of grade V egg albumen dissolved in 1 ml of a physiological solution by I.M. and intraperitoneal (I.P.) routes. With one mg of Freund's complete adjuvent solution. 13 days after sensitisation, the animals were killed under […] anaesthesia, the blood was taken and the serum was kept at -70° C. after its titre of IgE specific to egg albumen had been assayed. On the basis of type, 2 intradermal injections (i.d.) of 0.1 ml of the antiserum, titrated and suitably diluted were given into the shaved backs of 200 g male rats at a time -24h.
# The products under test were administered I.V. 20 minutes of the antigen. The animals were killed 30 minutes after the challenge, the skin of the back was turned inside out and the larger and smaller diameters of each blemish were measured. In practice the response of each animal was evaluated as the average of four diameters.
# [5] = test system: actively-sensitised guinea-pig lung fragments (histamine release); assay: Anaphylaxis in vitro, histamine release from actively sensitised guinea-pig lung fragments (modified Broklehurst method); assay type: cell-based; settings: for inhibition at 10 µg/mL / inhibition at 30 µg/mL / inhibition at 100 µg/mL / inhibition at 300 µg/mL / EC50: Cavia porcellus; for inhibition at 10 µg/mL: 10 mcg/ml; for inhibition at 10 µg/mL / inhibition at 30 µg/mL / inhibition at 100 µg/mL / inhibition at 300 µg/mL: read-out: % inhibition of anaphylactic histamine release; for inhibition at 30 µg/mL: 30 mcg/ml; for inhibition at 100 µg/mL: 100 mcg/ml; for inhibition at 300 µg/mL: 300 mcg/ml; for EC50: guinea-pig lung fragments in vitro, read-out: EC50, anaphylactic histamine release; for activity in the in vitro anaphylaxis model relative to DSCG: compared with DSCG
# Experimental: Male guinea pigs weighing approximately 250 g were sensitised with […] of grade V egg albumen dissolved in 1 ml of physiological solution and administered (1 ml/kg) I.P. and subcutaneously (S.C.). After three weeks the animals were killed under ethereal anaesthesia by bleeding. The lungs were removed and immersed in Tyrode solution at 4° C. Homogeneous fragments approximately 2 mm long were cut and divided into test pieces containing approximately 400 mg of tissue and […] of Tyrode. The samples were preincubated at 37° C. for 15 minutes with the compounds under test dissolved in 0.1 of Tyrode and incubated for a further 20 minutes at 37° C. The reaction was stopped by cooling in ice.
# 0.8 ml of the supernatant liquid were treated with perchloric acid and centrifuged to remove the proteins. The supernatant liquid was then made alkaline with 5N NaOH, the histamine was extracted with n-butanol and, after suitable dilution with n-heptane, was extracted again in dilute HCl.
# O-phthalaldehyde was added to the samples and their fluorescence was measured with a fluorimeter at 450 mu after activation at 360 mu.
# The histamine concentration in the samples was obtained from a standard straight-line graph in the range 50-800 ng/ml of histamine.
# [6] = Toxicity (LD50 IV in mice); settings: mouse, in vivo
# [7] = I.V., rats, 15 minutes before ethanol
# [8] = I.V., rats, 15 minutes before NaCl
# [9] = I.M., rats, 15 minutes before the test
smiles,measurement,setting,value
"CN1CCN(CC(=O)N2c3ccccc3C(=O)Nc3cccnc32)CC1 [PIRENZEPINE, pirenzepine, reference compound]",ED50,ulcer caused by ethanol; [7],> 50 mg/kg
same,protective activity (in words),ulcer caused by ethanol,inactive
same,ED50,ulcer caused by 25% NaCl; [8],> 50 mg/kg
same,ED50,ulcer caused by stress; [9],> 75 mg/kg
"N#Cc1ccc(C(=O)Nc2ccc(-c3nn[nH]n3)cc2)cc1 [Compound 10, N-°4-(5-tetrazolyl)e-phenyl-4-cyanobenzamide]",ED50,[1],42 mg/kg
same,ED50,[2],45 mg/kg
same,ED50,[3],39 mg/kg
"O=C(O)c1cc(NC(=O)c2ccc(-c3nn[nH]n3)cc2)cc(C(=O)O)c1 [Compound 11, N-(3,5-dicarboxy)phenyl-4-(5-tetrazolyl)-benzamide]",ED50,[1],33 mg/kg
same,ED50,[2],41 mg/kg
same,ED50,[3],50 mg/kg
same,ED50,ulcer caused by ethanol; [7],7 mg/kg
same,ED50,ulcer caused by 25% NaCl; [8],29 mg/kg
same,ED50,ulcer caused by stress; [9],65 mg/kg
same,% inhibition of passive cutaneous anaphylaxis,[4]; 50 mg/kg I.V.,53.3%
same,% inhibition of passive cutaneous anaphylaxis,[4]; 100 mg/kg I.V.,66%
same,% inhibition of passive cutaneous anaphylaxis,[4]; 150 mg/kg I.V.,74.7%
same,ED50,[4],42.6 mg/kg
same,inhibition at 10 µg/mL,[5],11.8%
same,inhibition at 30 µg/mL,[5],27.2%
same,inhibition at 100 µg/mL,[5],42.4%
same,inhibition at 300 µg/mL,[5],53.3%
same,EC50,[5],216 µg/mL
same,activity in the in vitro anaphylaxis model relative to DSCG,[5],10-15 times
"CN/C(=N/CCSCc1nc[nH]c1C)NC#N [[…], cimetidine, reference compound]",ED50,ulcer caused by ethanol,> 50 mg/kg
same,protective activity (in words),ulcer caused by ethanol,inactive
same,ED50,ulcer caused by 25% NaCl,> 50 mg/kg
same,ED50,ulcer caused by stress,> 75 mg/kg
"COc1ccc(C(=O)Nc2cc(C(=O)O)cc(C(=O)O)c2)cc1OC [Compound 8, N-(3,5-dicarboxy)phenyl-3,4-dimethoxybenzamide]",ED50,[1],208 mg/kg
same,ED50,[2],222 mg/kg
same,ED50,[3],188 mg/kg
"Cc1ccc(C(=O)Nc2cc(C(=O)O)cc(C(=O)O)c2)cc1 [Compound 4, N-(3,5-dicarboxy)phenyl-4-methylbenzamide]",ED50,[1],189 mg/kg
same,ED50,[2],> 250 mg/kg
same,ED50,[3],216 mg/kg
"O=C(O)c1cc(=O)c2c(OCC(O)COc3cccc4oc(C(=O)O)cc(=O)c34)cccc2o1 [DSCG, Di-sodium chromoglycate, reference compound]",% inhibition of passive cutaneous anaphylaxis,[4]; 50 mg/kg I.V.,16.0%
same,% inhibition of passive cutaneous anaphylaxis,[4]; 100 mg/kg I.V.,22.1%
same,% inhibition of passive cutaneous anaphylaxis,[4]; 150 mg/kg I.V.,57.5%
same,ED50,[4],153 mg/kg
same,dose relation of activity (in words),[5]; 10-300 mcg/ml,poorly dose-related
same,"inhibitory effect on the release of histamine, all doses tested",[5]; 10-300 mcg/ml,≤ 50%
same,inhibition at 10 µg/mL,[5],6.8%
same,inhibition at 30 µg/mL,[5],19.7%
same,inhibition at 100 µg/mL,[5],17.8%
same,inhibition at 300 µg/mL,[5],41.2%
same,EC50,[5],1460 µg/mL
"O=C(Nc1ccc(-c2nn[nH]n2)cc1)c1ccc(-c2nn[nH]n2)cc1 [Compound 12, N-°4-(5-tetrazolyl)phenyl-4-(5-tetrazolyl)-benzamide]",ED50,[1],26 mg/kg
same,ED50,[2],32 mg/kg
same,ED50,[3],30 mg/kg
same,ED50,ulcer caused by ethanol,3 mg/kg
same,ED50,ulcer caused by 25% NaCl,12 mg/kg
same,ED50,ulcer caused by stress,56 mg/kg
same,% inhibition of passive cutaneous anaphylaxis,[4]; 10 mg/kg I.V.,39.0%
same,% inhibition of passive cutaneous anaphylaxis,[4]; 30 mg/kg I.V.,45.3%
same,% inhibition of passive cutaneous anaphylaxis,[4]; 100 mg/kg I.V.,67.6%
same,ED50,[4],30.9 mg/kg
same,inhibition at 10 µg/mL,[5],22.8%
same,inhibition at 30 µg/mL,[5],28.4%
same,inhibition at 100 µg/mL,[5],56.2%
same,inhibition at 300 µg/mL,[5],65.4%
same,EC50,[5],93 µg/mL
same,activity in the in vitro anaphylaxis model relative to DSCG,[5],10-15 times
"O=C(O)c1cc(NC(=O)c2ccc([N+](=O)[O-])cc2)cc(C(=O)O)c1 [Compound 2, N-(3,5-dicarboxy)phenyl-4-nitrobenzamide]",ED50,[1],91 mg/kg
same,ED50,[2],109 mg/kg
same,ED50,[3],68 mg/kg
"O=C(O)c1cc(NC(=O)c2ccc(Cl)cc2)cc(C(=O)O)c1 [Compound 3, N-(3,5-dicarboxy)phenyl-4-chlorobenzamide]",ED50,[1],115 mg/kg
same,ED50,[2],108 mg/kg
same,ED50,[3],104 mg/kg
"COc1cc(C(=O)Nc2cc(C(=O)O)cc(C(=O)O)c2)ccc1[N+](=O)[O-] [Compound 9, N-(3,5-dicarboxy)phenyl-3-methoxy-4-nitrobenzamide]",ED50,[1],88 mg/kg
same,ED50,[2],100 mg/kg
same,ED50,[3],88 mg/kg
"N#Cc1ccc(C(=O)Nc2cc(C(N)=O)cc(C(=O)O)c2)cc1 [Compound 13, N-(3-carboxy-5-carbamoyl)phenyl-4-cyanobenzamide]",ED50,[1],68 mg/kg
same,ED50,[2],73 mg/kg
same,ED50,[3],65 mg/kg
"COc1ccc(C(=O)Nc2cc(C(=O)O)cc(C(=O)O)c2)cc1 [Compound 5, N-(3,5-dicarboxy)phenyl-4-methoxybenzamide]",ED50,[1],223 mg/kg
same,ED50,[2],240 mg/kg
same,ED50,[3],> 250 mg/kg
"O=C(O)c1cc(NC(=O)c2ccc([N+](=O)[O-])c(O)c2)cc(C(=O)O)c1 [Compound 6, N-(3,5-dicarboxy)phenyl-3-hydroxy-4-nitrobenzamide]",ED50,[1],210 mg/kg
same,ED50,[2],205 mg/kg
same,ED50,[3],186 mg/kg
"NC(=O)c1cc(NC(=O)c2ccc(-c3nn[nH]n3)cc2)cc(C(=O)O)c1 [Compound 14, N-(3-carboxy-5-carbamoyl)phenyl-4-(5-tetrazolyl)-benzamide]",ED50,[1],51 mg/kg
same,ED50,[2],48 mg/kg
same,ED50,[3],48 mg/kg
"O=C(O)c1cc(NC(=O)c2ccc(O)c(O)c2)cc(C(=O)O)c1 [Compound 7, N-(3,5-dicarboxy)phenyl-3,4-di-hydroxybenzamide]",ED50,[1],97 mg/kg
same,ED50,[2],102 mg/kg
same,ED50,[3],90 mg/kg
"N#Cc1ccc(C(=O)Nc2cc(C(=O)O)cc(C(=O)O)c2)cc1 [Compound 1, N-(3,5-dicarboxy)phenyl-4-cyanobenzamide]",ED50,[1],50 mg/kg
same,ED50,[2],47 mg/kg
same,ED50,[3],33 mg/kg
same,LD50,[6]; IV in mice,2400 mg/kg
same,selectivity ratio,"[6]; LD50 IV mice versus ED50 of pentagastrin, read-out: toxic dose relative to the antacid-secretion dose",~50
same,ED50,ulcer caused by ethanol; [7],45 mg/kg
same,ED50,ulcer caused by 25% NaCl; [8],42 mg/kg
same,ED50,ulcer caused by stress; [9],135 mg/kg
same,% inhibition of passive cutaneous anaphylaxis,[4]; 50 mg/kg I.V.,20.0%
same,% inhibition of passive cutaneous anaphylaxis,[4]; 100 mg/kg I.V.,37.2%
same,% inhibition of passive cutaneous anaphylaxis,[4]; 150 mg/kg I.V.,58.2%
same,ED50,[4],128 mg/kg
